Results on six compounds are retold here after patent US12577526B2, “Massively parallel on-chip construction of synthetic microbial communities” (MASSACHUSETTS INSTITUTE OF TECHNOLOGY, priority 2019, dated 2026).

“Also recorded” adds a separate entry of the source.

The test system of the first assay is Herbaspirillum frisingense (Hf-GFP). Nature of the assay: Hf-GFP facilitation screen on kChip (Hf-GFP yield in co-culture with soil isolate compositions, single carbon sources). The class given is cell-based. The note with it: single carbon source 0.5% w/v, by 72 hours. As to the method: Microbial cultures were prepared as described in the “Microbial culture input preparation” section above. The culture medium for H. frisingense revival from a glycerol stock also included the selection antibiotic kanamycin (30 μg/mL). Six carbon sources (galactose, glucose, fructose, raffinose, lactose, sucrose) were prepared as described in the “Carbon source input preparation” section above to a concentration of 2% w/v, which were added 1:1 with MM+0.05% w/v BSA to produce 1×MM+1% w/v carbon source (six unique MM each with one carbon source). A plate of 16 color codes were also prepared in advance at 50 μM total concentration (“kChip input preprocessing” section above).
At the onset of the screen, all cultures were washed three times and resuspended in MM+0.05% w/v BSA (no carbon source) and normalized to an initial OD600=0.08. A “droplet plate” (96-well plate) was prepared whereby each of 16 wells, corresponding to the 16 input conditions of the screen, received the following four elements: (1) 50 μL MM+1% w/v carbon source; (2) 25 μL unique soil isolate at OD600=0.08 (or a no-isolate control or a negative control); (3) 25 μL Hf-GFP at OD600=0.08; and (4) 2 μL 50 μM color code. The two controls, a negative control and a no-isolate control, were in principle the same (just different color codes), with the negative control used to measure Hf-GFP monocultures and the no-isolate used to calculate isolate-mediated differences. The carbon source and color code were mixed in advance, though the cultures were added just before making droplets to load on a kChip.
After emulsification, each 1-nL droplet contained the following: (1) 0.5% w/v carbon source; (2) soil isolate at OD600=0.02 (˜20 cells) (or no-isolate control or negative control); (3) Hf-GFP at OD600=0.02 (˜20 cells); and (4) a set of color code (total concentration of all three fluorescent dyes at 1 μM). Droplets were prepared for each carbon source at a time and loaded onto a k={1:7;19} Chip, i.e. first all sucrose-containing droplets were prepared and loaded onto the first kChip in the screen, then all lactose-containing droplets were prepared and loaded onto the second kChip, and so forth. Because there were only 16 inputs in total, there were no instances where all inputs were unique in k=19 microwells. The instant analysis was focused upon the k=1-7 microwells, and specifically on instances where all droplets within a given microwell were unique. Throughput tradeoffs associated with this number of inputs and k values are discussed below.
After loading droplets, the kChip was imaged to read the color-code of each droplet (“pre-merge” scan) and droplet sets were merged within their corresponding microwells (“Droplet making and kChip loading” section above). The post-merge communities contained the following: (1) 0.5% w/v carbon source; (2) k=1, 2, 3, 4, 5, 6, 7, or 19 soil isolates collectively at OD600=0.02 (or no-isolate control or negative control); (3) Hf-GFP at OD600=0.02; and (4) 1 μM mixed color codes (no longer serving a purpose). […]
In the case of `O=C(CO)[C@@H](O)[C@H](O)[C@H](O)CO` [fructose], the “Hf-GFP monoculture growth/yield on the carbon source” value (“Hf-GFP monoculture growth/yield” below) is reported as “low”.
For the compound `OC[C@H]1O[C@@H](O[C@H]2[C@H](O)[C@@H](O)C(O)O[C@@H]2CO)[C@H](O)[C@@H](O)[C@H]1O` (stereo partly drawn) [lactose], the “Hf-GFP monoculture growth/yield” value was “low”.
Take `O=C[C@H](O)[C@@H](O)[C@@H](O)[C@H](O)CO` [galactose]: the “Hf-GFP monoculture growth/yield” value is given as “high yield”.
For `OC[C@H]1O[C@H](OC[C@H]2O[C@H](O[C@]3(CO)O[C@H](CO)[C@@H](O)[C@@H]3O)[C@H](O)[C@@H](O)[C@@H]2O)[C@H](O)[C@@H](O)[C@H]1O` [raffinose], the “Hf-GFP monoculture growth/yield” value is on record as “low”.
On to `OC[C@H]1O[C@@](CO)(O[C@H]2O[C@H](CO)[C@@H](O)[C@H](O)[C@H]2O)[C@@H](O)[C@@H]1O` [sucrose], for which the “Hf-GFP monoculture growth/yield” value is reported as “indistinguishable from background; also recorded: undetectably low”.

The test system of a further assay is panel of seven fluorescent strains.
Assay: not given
The settings on record: cultures unable to grow on a given carbon source, BSA added.
Turning to bovine serum albumin [BSA], the “serving as an alternative carbon source (false positive growth)” value is on record as “caused no false positives”.
